Results from ChEMBL document CHEMBL1201862, “PubChem BioAssay data set” (2004).
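Briefly, cells in 96-well plates were exposed to five compound concentrations for 48 h, and endpoints were estimated by linear interpolation. GI50 is the concentration that inhibits growth by half.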 Active and inactive are the calls of the source. Cut-off read from the data, not from the text of the source: active = GI50 up to about 1.1 µM and inactive = higher.

Legend:
Test in all cases: inhibition of tumour cell growth, NCI panel, 48 h
786-0 = system: 786-0
A549 = system: A549
HCT-15 = system: HCT-15
HL-60 = system: HL-60
Hs-578T = system: Hs-578T
KM12 = system: KM12
MDA-N = system: MDA-N
NCI-H226 = system: NCI-H226
OVCAR-5 = system: OVCAR-5
SF-295 = system: SF-295
SF-539 = system: SF-539
SK-MEL-28 = system: SK-MEL-28
SK-MEL-2 = system: SK-MEL-2
SK-MEL-5 = system: SK-MEL-5
SK-OV-3 = system: SK-OV-3
SNB-19 = system: SNB-19
SW-620 = system: SW-620
UO-31 = system: UO-31
IGROV-1 = system: IGROV-1
NCI-H522 = system: NCI-H522

| Structure (SMILES) | GI50 (786-0) | GI50 (A549) | GI50 (HCT-15) | GI50 (HL-60) | GI50 (Hs-578T) | GI50 (KM12) | GI50 (MDA-N) | GI50 (NCI-H226) | GI50 (OVCAR-5) | GI50 (SF-295) | GI50 (SF-539) | GI50 (SK-MEL-28) | GI50 (SK-MEL-2) | GI50 (SK-MEL-5) | GI50 (SK-OV-3) | GI50 (SNB-19) | GI50 (SW-620) | GI50 (UO-31) | GI50 (IGROV-1) | GI50 (NCI-H522) |
| --- | --- | --- | --- | --- | --- | --- | --- | --- | --- | --- | --- | --- | --- | --- | --- | --- | --- | --- | --- | --- |
| COc1ccccc1/C(=N\OCCC(=O)O)c1cccs1 | > 100 µM (inactive) | > 100 µM (inactive) | > 100 µM | > 100 µM (inactive) | 56.6 µM (inactive) | > 100 µM (inactive) | > 100 µM (inactive) | > 100 µM (inactive) | > 100 µM (inactive) | > 100 µM (inactive) | > 100 µM (inactive) | > 100 µM (inactive) | > 100 µM (inactive) | > 100 µM (inactive) | > 100 µM (inactive) | > 100 µM (inactive) | > 100 µM (inactive) | > 100 µM (inactive) | – | – |
| CC1(C)C=[N+]([O-])C(C)(C)N1 | > 100 µM (inactive) | > 100 µM (inactive) | > 100 µM | > 100 µM (inactive) | > 100 µM (inactive) | > 100 µM (inactive) | > 100 µM (inactive) | > 100 µM (inactive) | > 100 µM (inactive) | > 100 µM (inactive) | > 100 µM (inactive) | > 100 µM (inactive) | > 100 µM (inactive) | > 100 µM (inactive) | > 100 µM (inactive) | > 100 µM (inactive) | > 100 µM (inactive) | > 100 µM (inactive) | > 100 µM (inactive) | – |
| CC(C)c1ccc2c(c1)/C(=C1/Nc3ccccc3/C1=N/O)C(=O)N2 | 4.85 µM (inactive) | 6.28 µM (inactive) | 3.98 µM | – | 4.76 µM (inactive) | 0.0431 µM (active) | 6.73 µM (inactive) | 10.8 µM (inactive) | 16.1 µM (inactive) | 2.13 µM (inactive) | – | 13.5 µM (inactive) | 3.9 µM (inactive) | 3.82 µM (inactive) | 6.55 µM (inactive) | 16.4 µM (inactive) | 5.11 µM (inactive) | 3.69 µM (inactive) | 8.73 µM (inactive) | 4.06 µM (inactive) |
| CC(=O)c1c(C)[n+]([O-])c2cc(Cl)c(Cl)cc2[n+]1[O-] | 27.5 µM (inactive) | 19.2 µM (inactive) | 12.2 µM | 10.4 µM (inactive) | 20.7 µM (inactive) | 10.3 µM (inactive) | 22.6 µM (inactive) | – | 38.3 µM (inactive) | 26.5 µM (inactive) | 24.7 µM (inactive) | 29.8 µM (inactive) | 27.6 µM (inactive) | 11.6 µM (inactive) | 19.4 µM (inactive) | 30.8 µM (inactive) | 17.7 µM (inactive) | 14.9 µM (inactive) | 4.98 µM (inactive) | 12.6 µM (inactive) |
| COc1cc(OC)cc(-c2nc(O)c3ccccc3n2)c1 | 25.4 µM (inactive) | > 100 µM (inactive) | > 100 µM | > 100 µM (inactive) | 38.8 µM (inactive) | > 100 µM (inactive) | > 100 µM (inactive) | > 100 µM (inactive) | > 100 µM (inactive) | 29 µM (inactive) | – | > 100 µM (inactive) | > 100 µM (inactive) | > 100 µM (inactive) | 22.8 µM (inactive) | 49 µM (inactive) | > 100 µM (inactive) | 71.9 µM (inactive) | 93.1 µM (inactive) | – |
| CC1CNC(c2ccc(COc3ccc(C4=NC(C)CN4)cc3)cc2)=N1 (stereo not drawn) | > 100 µM (inactive) | 21.2 µM (inactive) | > 100 µM | > 100 µM (inactive) | 22.9 µM (inactive) | 27.4 µM (inactive) | 82.2 µM (inactive) | – | > 100 µM (inactive) | 43.4 µM (inactive) | 54.8 µM (inactive) | 41.8 µM (inactive) | 18.6 µM (inactive) | 28.6 µM (inactive) | 73.1 µM (inactive) | 50.1 µM (inactive) | 67.9 µM (inactive) | > 100 µM (inactive) | > 100 µM (inactive) | 39 µM (inactive) |
| Cn1c2c(c3ccccc31)CC(=O)N1CCCCC1C21OCCO1 (stereo not drawn) | > 100 µM (inactive) | > 100 µM (inactive) | > 100 µM | – | > 100 µM (inactive) | > 100 µM (inactive) | > 100 µM (inactive) | > 100 µM (inactive) | > 100 µM (inactive) | > 100 µM (inactive) | – | > 100 µM (inactive) | > 100 µM (inactive) | > 100 µM (inactive) | > 100 µM (inactive) | > 100 µM (inactive) | > 100 µM (inactive) | > 100 µM (inactive) | > 100 µM (inactive) | – |
| CCN(CC)C(=O)C1=C(C)NC(C)=C(C(=O)N(CC)CC)C1 | > 100 µM (inactive) | > 100 µM (inactive) | > 100 µM | > 100 µM (inactive) | 44.7 µM (inactive) | > 100 µM (inactive) | > 100 µM (inactive) | – | > 100 µM (inactive) | > 100 µM (inactive) | > 100 µM (inactive) | > 100 µM (inactive) | > 100 µM (inactive) | > 100 µM (inactive) | > 100 µM (inactive) | > 100 µM (inactive) | > 100 µM (inactive) | 81.1 µM (inactive) | > 100 µM (inactive) | > 100 µM (inactive) |
| CC1(c2cccc(C(F)(F)F)c2)CC(c2cccc(C(F)(F)F)c2)=C(C#N)C(=C(C#N)C#N)N1 (stereo not drawn) | 17 µM (inactive) | 19.5 µM (inactive) | 16.4 µM | 15.5 µM (inactive) | 17.3 µM (inactive) | 16.5 µM (inactive) | 18 µM (inactive) | 18.2 µM (inactive) | 18.2 µM (inactive) | 16.6 µM (inactive) | 17.4 µM (inactive) | 16 µM (inactive) | 19.6 µM (inactive) | 15.2 µM (inactive) | 16.1 µM (inactive) | 19.4 µM (inactive) | 15 µM (inactive) | 18.6 µM (inactive) | 16.6 µM (inactive) | – |
| O=C1CC(Br)c2c(Cl)sc(Cl)c21 (stereo not drawn) | 3.04 µM (inactive) | 18.3 µM (inactive) | 8.07 µM | 2.13 µM (inactive) | 16.5 µM (inactive) | 6.58 µM (inactive) | 3.21 µM (inactive) | – | 18 µM (inactive) | 16.4 µM (inactive) | 8.3 µM (inactive) | 13.6 µM (inactive) | 15.8 µM (inactive) | 17.6 µM (inactive) | 16.7 µM (inactive) | 19.3 µM (inactive) | 1.84 µM (inactive) | 4.06 µM (inactive) | 11.4 µM (inactive) | 17 µM (inactive) |
| CCOC(=O)c1cc(NC(=O)N(CCC#N)CCN(C(=O)N[C@@H](Cc2ccccc2)C(=O)N[C@@H](CC(C)C)C(=O)NC)c2ccccc2)ccc1OC | 45.3 µM (inactive) | > 100 µM (inactive) | 57.4 µM | – | 42.2 µM (inactive) | > 100 µM (inactive) | 57.1 µM (inactive) | 35.5 µM (inactive) | > 100 µM (inactive) | 34.6 µM (inactive) | 31.3 µM (inactive) | 28.9 µM (inactive) | 38.2 µM (inactive) | 42.3 µM (inactive) | 70 µM (inactive) | 79.4 µM (inactive) | > 10 µM (inactive) | 34.4 µM (inactive) | 41.8 µM (inactive) | – |
| COc1cc2c(cc1OC)C1=Cc3cc(OC)c(OC)cc3C(C)N1C=C2 (stereo not drawn) | > 100 µM (inactive) | > 100 µM (inactive) | 69.7 µM | > 100 µM (inactive) | 74 µM (inactive) | 74.8 µM (inactive) | 51.5 µM (inactive) | > 100 µM (inactive) | > 100 µM (inactive) | > 100 µM (inactive) | > 100 µM (inactive) | 63.2 µM (inactive) | – | 38.4 µM (inactive) | > 100 µM (inactive) | 59.4 µM (inactive) | 84.5 µM (inactive) | 55.1 µM (inactive) | > 100 µM (inactive) | – |
| COc1ccc(CC2Cc3ccccc3CC(=O)N2)cc1OC (stereo not drawn) | > 100 µM (inactive) | > 100 µM (inactive) | > 100 µM | 21.4 µM (inactive) | > 100 µM (inactive) | 39.2 µM (inactive) | 52.5 µM (inactive) | 43.6 µM (inactive) | > 100 µM (inactive) | 86.7 µM (inactive) | > 100 µM (inactive) | > 100 µM (inactive) | > 100 µM (inactive) | 14.3 µM (inactive) | > 100 µM (inactive) | > 100 µM (inactive) | > 100 µM (inactive) | > 100 µM (inactive) | > 100 µM (inactive) | – |
| Cc1cccc2c(N)c3cccc(C(=O)NCC[N+](C)(C)[O-])c3nc12 | 2.46 µM (inactive) | 1.24 µM (inactive) | 11.3 µM | 4.05 µM (inactive) | 5.37 µM (inactive) | > 100 µM (inactive) | 14.2 µM (inactive) | 3.05 µM (inactive) | 5.32 µM (inactive) | 6.76 µM (inactive) | 6.82 µM (inactive) | 17.3 µM (inactive) | 67.5 µM (inactive) | 22.8 µM (inactive) | 14 µM (inactive) | 7.87 µM (inactive) | 5.53 µM (inactive) | 21.7 µM (inactive) | 8.39 µM (inactive) | – |
| Cc1ccccc1-c1nc2c(N)nc(N)nc2nc1N | 7.23 µM (inactive) | 3.22 µM (inactive) | 4.15 µM | > 100 µM (inactive) | > 100 µM (inactive) | 29.8 µM (inactive) | 4.56 µM (inactive) | – | 39.9 µM (inactive) | 12.8 µM (inactive) | 22.5 µM (inactive) | 67.9 µM (inactive) | > 100 µM (inactive) | > 100 µM (inactive) | > 100 µM (inactive) | 44.3 µM (inactive) | 4.86 µM (inactive) | 12 µM (inactive) | 6.82 µM (inactive) | 22.6 µM (inactive) |
